{"source": "patent US10981926B2", "about": "(Janssen Pharmaceutica NV, priority 2016, dated 2021)", "biological_target": "F876L-VP16 (Homo sapiens (Human), UniProt P10275, F877L)", "sequence (P10275 whole entry F877L)": "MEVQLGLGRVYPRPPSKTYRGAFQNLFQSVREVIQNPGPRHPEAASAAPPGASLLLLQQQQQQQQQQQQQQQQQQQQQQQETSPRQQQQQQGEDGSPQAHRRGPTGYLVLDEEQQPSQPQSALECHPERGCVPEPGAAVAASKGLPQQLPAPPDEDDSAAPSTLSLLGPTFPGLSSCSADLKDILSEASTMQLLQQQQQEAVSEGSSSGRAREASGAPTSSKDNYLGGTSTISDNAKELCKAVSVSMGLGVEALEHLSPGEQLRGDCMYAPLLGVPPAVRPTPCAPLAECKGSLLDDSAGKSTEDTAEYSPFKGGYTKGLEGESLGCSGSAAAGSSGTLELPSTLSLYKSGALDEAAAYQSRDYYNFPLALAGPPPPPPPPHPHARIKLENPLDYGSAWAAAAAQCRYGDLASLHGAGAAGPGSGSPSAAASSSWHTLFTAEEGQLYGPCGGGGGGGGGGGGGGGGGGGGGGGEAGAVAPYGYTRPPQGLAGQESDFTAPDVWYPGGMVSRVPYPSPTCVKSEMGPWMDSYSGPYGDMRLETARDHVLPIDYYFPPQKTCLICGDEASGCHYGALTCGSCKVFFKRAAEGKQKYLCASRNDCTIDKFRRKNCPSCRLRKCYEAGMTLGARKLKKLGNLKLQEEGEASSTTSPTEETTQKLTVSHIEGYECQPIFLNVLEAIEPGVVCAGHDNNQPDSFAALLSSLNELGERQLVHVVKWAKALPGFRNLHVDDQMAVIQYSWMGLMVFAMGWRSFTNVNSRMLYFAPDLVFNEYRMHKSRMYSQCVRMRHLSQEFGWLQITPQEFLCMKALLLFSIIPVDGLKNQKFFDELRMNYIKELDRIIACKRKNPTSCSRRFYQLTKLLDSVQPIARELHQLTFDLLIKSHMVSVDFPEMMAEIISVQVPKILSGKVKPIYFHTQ", "test": "AR-VP16 DNA Binding Assay (VP16 F876L)", "type": "cell-based", "details": "HepG2, antagonist mode, 1 nM R1881, 48 hours", "experimental": "HepG2 cells were maintained in EMEM supplemented with 10% FBS. One day before transfection, the media was changed to EMEM with 10% CSS. T-150 flasks were transiently transfected using 120 μL Lipofectamine 2000 (Life Technologies), 24.5 μg AR-VP16 or F876L-VP16 (expression vector) and 49 μg 4×ARE-Luciferase (reporter vector) in OptiMEM and the flasks were incubated overnight. Cells were then trypsinized, counted and resuspended at 500,000 cells/mL. For agonist mode, the compounds were serially diluted and 50 μL of the compound was added per well. 50 μL of the cells were added to each well and incubated for 48 hours. For antagonist mode, a final concentration of 90 pM (VP16 AR) or 1 nM (VP16 F876L) R1881 was added to the plate and incubated for 48 hours. The plates were then assayed using SteadyGlo and read on the Envision. Percent Stimulation and Inhibition were determined and analyzed using GraphPad Prism."}
{"smiles": "N#Cc1ncc(N2C(=O)C3(CCC3)N(c3ccc(OC4CCNCC4)nc3)C2=S)cc1C(F)(F)F", "note": "[Cpd 43, 5-[5-oxo-8-[6-(4-piperidyloxy)-3-pyridyl]-7-thioxo-6,8-diazaspiro[3.4]octan-6-yl]-3-(trifluoromethyl)pyridine-2-carbonitrile]", "values": [{"measurement": "IC50", "value": 15, "unit": "nM"}]}
